Source: patent publication US10519107B2, “Sulfonamide compounds and their use as STAT5 inhibitors” (Governing Council of the University of Toronto, priority 2014, dated 2019)

Columns and labels:
[1] = target: T1, wildtype STAT5B protein (SH2 domain) (Homo sapiens, UniProt P51692); assay: Fluorescence polarization competitive binding, STAT5b; settings: FP; for Ki: converted from IC50 with Equation 1; for IC50: 5-FAM-GpYLVLDKW 10 nM, STAT5B 250 nM
T1 sequence (P51692 1-787): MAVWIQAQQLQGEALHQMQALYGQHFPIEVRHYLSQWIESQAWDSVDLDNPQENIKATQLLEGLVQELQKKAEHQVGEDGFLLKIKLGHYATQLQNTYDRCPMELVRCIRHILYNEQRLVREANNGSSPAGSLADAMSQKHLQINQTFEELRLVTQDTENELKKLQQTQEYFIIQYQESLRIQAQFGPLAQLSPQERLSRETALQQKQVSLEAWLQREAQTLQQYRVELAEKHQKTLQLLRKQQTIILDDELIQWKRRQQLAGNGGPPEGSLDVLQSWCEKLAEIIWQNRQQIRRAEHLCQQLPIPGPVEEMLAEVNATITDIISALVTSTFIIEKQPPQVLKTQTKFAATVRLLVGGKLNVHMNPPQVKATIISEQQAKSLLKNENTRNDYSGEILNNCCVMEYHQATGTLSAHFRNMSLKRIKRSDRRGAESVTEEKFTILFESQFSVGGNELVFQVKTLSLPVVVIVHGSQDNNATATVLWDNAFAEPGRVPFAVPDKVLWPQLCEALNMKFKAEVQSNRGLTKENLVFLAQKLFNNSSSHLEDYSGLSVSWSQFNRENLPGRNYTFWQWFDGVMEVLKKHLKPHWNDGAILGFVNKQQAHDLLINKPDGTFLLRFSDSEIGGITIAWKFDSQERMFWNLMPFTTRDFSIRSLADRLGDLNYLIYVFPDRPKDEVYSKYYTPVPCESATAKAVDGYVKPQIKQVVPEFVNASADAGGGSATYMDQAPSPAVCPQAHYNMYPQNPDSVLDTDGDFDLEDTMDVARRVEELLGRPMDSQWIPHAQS
Experimental: (§1) Fluorescence assays were performed in flat black 384-well plates (Corning) and fluorescence polarization measurements were taken with the Infinite M1000 machine (Tecan, Crailsheim, Germany). The buffer conditions for all assays were 20 mM HEPES, 50 mM NaCl, 1 mM EDTA, 2 mM dithiothreitol, pH 7.5 and the final DMSO concentration in the wells was kept constant at 10%.
The point at which 80% of the fluoresceinated-phosphopeptide was bound was used as the optimal protein concentration required for the competitive fluorescent polarization assays.
Compounds were titrated at concentrations ranging from 1->60,000 nM and incubated for a further 15 minutes at which point fluorescence polarization measurements were taken in triplicate. The final well concentrations of the fluoresceinated-phosphopeptide and STAT5B were 10 nM and 250 nM, respectively.
The resulting fluorescence polarization measurements were normalized and plotted against compound concentration on a logarithmic scale. The raw data was fitted with a standard dose-normalized response inhibition curve using GraphPad Prism 6 software.
(§2) Modified Cheng-Pruskoff equation containing a correction factor for protein concentration.

wildtype STAT3 protein = wildtype STAT3 protein (Homo sapiens, UniProt P40763); assay: Fluorescence polarization competitive binding, STAT3; settings: FP; converted from IC50 with Equation 1
Chain of wildtype STAT3 protein (P40763 whole entry, species assumed, the tested form may be a part): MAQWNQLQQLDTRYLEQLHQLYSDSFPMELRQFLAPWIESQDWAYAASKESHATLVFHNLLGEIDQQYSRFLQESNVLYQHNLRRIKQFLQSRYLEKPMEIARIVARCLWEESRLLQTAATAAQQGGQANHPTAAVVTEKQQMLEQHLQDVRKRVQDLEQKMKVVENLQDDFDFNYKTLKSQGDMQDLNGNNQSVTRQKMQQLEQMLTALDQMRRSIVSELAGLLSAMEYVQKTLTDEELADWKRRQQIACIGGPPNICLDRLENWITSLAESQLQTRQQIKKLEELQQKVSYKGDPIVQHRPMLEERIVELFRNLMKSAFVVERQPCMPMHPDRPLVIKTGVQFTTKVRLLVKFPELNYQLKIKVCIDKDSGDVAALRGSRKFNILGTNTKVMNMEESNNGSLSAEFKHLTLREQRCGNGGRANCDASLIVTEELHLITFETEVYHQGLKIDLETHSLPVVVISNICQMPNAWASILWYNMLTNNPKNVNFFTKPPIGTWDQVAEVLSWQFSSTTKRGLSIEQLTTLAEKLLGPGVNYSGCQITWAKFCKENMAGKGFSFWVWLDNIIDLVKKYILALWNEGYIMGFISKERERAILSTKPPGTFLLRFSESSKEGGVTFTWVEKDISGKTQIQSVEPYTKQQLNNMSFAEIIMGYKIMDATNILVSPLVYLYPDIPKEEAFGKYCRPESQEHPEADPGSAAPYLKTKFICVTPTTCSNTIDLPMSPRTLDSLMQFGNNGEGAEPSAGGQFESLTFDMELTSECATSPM
Experimental: as §1, with “Binding of compounds of the disclosure to the STAT5b SH2 domain was assessed using fluorescence polarization assays similar to those previously reported.^15 Analogous assays were also performed with STAT3 protein to determine the specificity of the compounds (13a-d). Fluorescence” for “Fluorescence”
Calibration curves for the wildtype STAT3 and STAT5b proteins were derived by incubating a 10 nM final concentration of fluoresceinated-phosphopeptide (5-FAM-pYLPQTC (SEQ ID NO:1) and 5-FAM-GpYLVLDKW (SEQ ID NO:2) for STAT3 and STAT5B, respectively), which are known to bind the SH2 domains, with increasing concentrations of protein (as shown in FIG. 3). The point at which 80% of the fluoresceinated-phosphopeptide was bound was used as the optimal protein concentration required for the competitive fluorescent polarization assays.
For the STAT5b fluorescence polarization assays, the 5-FAM-GpYLVLDKW (SEQ ID NO:2) peptide and STAT5b protein were first incubated for 30 minutes at room temperature. Compounds were titrated at concentrations ranging from 1->60,000 nM and incubated for a further 15 minutes at which point fluorescence polarization measurements were taken in triplicate. The final well concentrations of the fluoresceinated-phosphopeptide and STAT5B were 10 nM and 250 nM, respectively. The same protocol was used for the analogous STAT3 FP assays, except that the 5-FAM-pYLPQTC (SEQ ID NO:1) peptide was used as a probe and the final STAT3 concentration was 150 nM in each well.
The resulting fluorescence polarization measurements were normalized and plotted against compound concentration on a logarithmic scale. The raw data was fitted with a standard dose-normalized response inhibition curve using GraphPad Prism 6 software. The IC50 values were converted to Ki values using Equation 1, which corrects for protein concentration and is a more accurate determination of inhibitory constants in a fluorescence polarization assay than the Cheng-Pruskoff equation.^15 All inhibitory constants and calculated Ki values are summarized in Table 1.
as §2

O=c1ccoc2ccccc12 [Chromone, reference compound]
Ki [1]: > 60 µM

Cc1cc(C)c(S(=O)(=O)N(CC(=O)N(Cc2cc(C(C)(C)C)cc(C(C)(C)C)c2)c2ccc(C(=O)O)c(O)c2)Cc2ccc(Cl)cc2)c(C)c1 [Compound 13b, 4-(2-((N-(4-chlorobenzyl)-2,4,6-trimethylphenyl)sulfonamido)-N-(3,5-di-tert-butylbenzyl)acetamido)-2-hydroxybenzoic Acid]
IC50 [1]: 6.53 µM
Ki [1]: 2.57 µM
Ki (wildtype STAT3 protein): > 60 µM

Cc1cc(C)c(S(=O)(=O)N(CC(=O)N(Cc2ccc3ccccc3c2)c2ccc(C(=O)O)c(O)c2)Cc2ccc(Cl)cc2)c(C)c1 [Compound 13c, 4-(2-((N-(4-chlorobenzyl)-2,4,6-trimethylphenyl)sulfonamido)-N-(naphthalene-2-ylmethyl)acetamido)-2-hydroxybenzoic Acid]
IC50 [1]: 8.2 µM
Ki [1]: 3.24 µM
Ki (wildtype STAT3 protein): > 60 µM

O=C(O)c1ccc(N(Cc2ccc3ccccc3c2)C(=O)CN(Cc2ccc(Cl)cc2)S(=O)(=O)c2c(F)c(F)c(F)c(F)c2F)cc1O [Compound 13d, 4-(2-((N-(4-chlorobenzyl)-2,3,4,5,6-pentafluorophenyl)sulfonamido)-N-(-naphthalene-2-ylmethyl)acetamido)-2-hydroxybenzoic Acid]
IC50 [1]: 3.95 µM
Ki [1]: 1.56 µM
Ki (wildtype STAT3 protein): > 60 µM
